Here are results for 12 compounds from patent US20230158116A1, “USE OF HUMAN AMYLIN ANALOG POLYPEPTIDES FOR PROVIDING SUPERIOR GLYCEMIC CONTROL TO TYPE 1 DIABETICS” (I2O Therapeutics, Inc., priority 2020, published 2023).

The format of data set [1] is in vivo, rat (male Wistar). More on the design: hypo avoidance index (benefit index; below 70 mg/dL weighted 5× vs over 180 mg/dL): scale not given here; hazard index: time above 180 mg/dL (hyperglycemic) / benefit index: time in range (above 70, below 180 mg/dL): unit not given here. The settings on record: for benefit index: time in range (above 70, below 180 mg/dL) / hazard index: time above 180 mg/dL (hyperglycemic) / hypo avoidance index (benefit index; below 70 mg/dL weighted 5× vs over 180 mg/dL): STZ rat, A2 0 μg/kg/day. The text has this: Male Wistar rats are implanted intraperitoneally (sensor in abdominal aorta) with an HD-XG continuous glucose monitor (Data Sciences, St Paul, Minn.) (Brockway, Tiesma et al. 2015). This system allows up to 8 weeks of continuous capture of blood glucose concentrations.
Upon recovery from surgery and resumption of normal food intake, capture of glucose readings begins so as to include at least 4 days of non-diabetic record for each rat. To induce insulinopenic (type 1) diabetes, rats are fasted overnight and administered an intravenous dose of streptozotocin (STZ) of 60 mg/kg (Gajdosik, Gajdosikova et al. 1999). Glucose readings from the telemetry system are used to enhance survival post-STZ, by s.c. glucose supplementation in the event of hypoglycemia that often accompanies an initial release of insulin following β-cell toxicity. The telemetry is then used to affirm hyperglycemia (mean plasma glucose >300 mg/dL), and to determine if a second STZ treatment is necessary for rats that are not sufficiently hyperglycemic.
Upon becoming hyperglycemic, animals are treated daily with a sliding-scale of a long-acting insulin (insulin detemir, Levemir NOVO) so as to eliminate urinary ketones, but maintain 5% glycosuria, as determined by daily KETOSTIX and GLUCOSTIX testing, respectively (Young, Crocker et al. 1991).
Animals are assigned to one of 3 cohorts of insulin dosing (n=5/cohort). One cohort is defined as that necessary to attain −ve urinary ketones and +ve urinary glucose, as just described, but not greater than a total dose of 2 U/day. A second cohort is a high insulin dose cohort, 3× greater than cohort 1. A third cohort is one where insulin dose is 50% of that of cohort 1.
(§1) Following at least 1 week of insulin dose stabilization, animals are entered into each of 5 supplemental treatments comprising administration of the long-acting amylin agonist, compound A2, at doses of 1, 3, 10, 30 or 100 μg/day as a single daily injection, in addition to the fixed daily Levemir dose. (Alternatively, these studies could utilize relatively short-acting pramlintide as an amylin analog.) The […] is 32-37 hours in the rat, similar to that of albumin-bound insulin detemir. Daily dosing of each therefore maintains relatively constant concentrations of each, and a relatively ratio of concentrations.
Each dose level of compound A2 is maintained for 1 week, during which glucose data is captured via telemetry. The order in which doses of compound A2 are changed is determined by a 5×5 orthogonal latin square. That is, each animal receives each dose of compound A2, but in an order that is unique relative to that of the other 4 animals in the same insulin cohort. This treatment balances out time-dependent or order-dependent changes in metabolic status of each animal, such as regeneration of insulin secretory capacity, and accommodation to the effects of an amylin agonist.
Plasma glucose values from the final 4 days of each insulin/A2 combination are aggregated and analyzed according to frequency of occurrence (cumulative distributions). Analogous to the time-in-range (TIR) assessment of clinical benefit (sometimes termed “clinical utility”) in human diabetes trials (Beck, Bergenstal et al. 2018), glucose values are categorized within bins (<70, 70-180, and >180 mg/dL). Further cuts (>250 mg/dL) are also made. Parametric descriptors of glucose values are also derived for each combination (mean and SD values, linear and logarithmic, where data are not normal but are log-normal).
Higher benefit (i.e., utility) is indicated when TIR is greatest, with the proviso that values below 70 mg/dL are not more frequent. Higher benefit is also indicated when the SD for the distribution of glucose values is least.

For data set [2] the following is noted: cited from earlier work.
The conditions of data set [3]: cited from earlier work. This is another data set of the same source.
The conditions of data set [4]: in vivo; cited from earlier work.
Data set [5] can be described thus: Half-life of compound A2 in the rat. The settings on record: in vivo, read-out: 0% of compound A2 (half-life). How it is done:
as §1

Read-outs that look alike come from different tables or passages of the source. Starred links: 1 amine or outer side, 2 acyl side, 3 side chain; linkers in the order of their positions; H or OH if unused. Positions of bridges follow the written chain, without caps; N, C: chain ends. Residues, ends and D or L forms follow the SMILES beside them. Groups on a side chain read outwards from the residue. No end group written: not given here. *: point of attachment. C20 diacid = O=C(O)CCCCCCCCCCCCCCCCCCC(=O)*; γGlu = O=C(O)[C@H](CCC(=O)[*:2])N[*:1]

Take “insulin detemir [Novo's Levemir ® (insulin detemir)]”: in data set [1] (insulin 1 U/day), the “benefit index: time in range (above 70, below 180 mg/dL)” value (from here on “benefit index: time in range”) was 39.5; the “hazard index: time above 180 mg/dL (hyperglycemic)” value (“hazard index: time above 180 mg/dL” for short) was found to be 60.2; the “hypo avoidance index (benefit index; below 70 mg/dL weighted 5× vs over 180 mg/dL)” value (shortened to “hypo avoidance index”) amounted to 33.8. Further, in data set [1] (insulin 2 U/day), the “benefit index: time in range” value was determined as 64.9; the “hazard index: time above 180 mg/dL” value is 29.4; the “hypo avoidance index” value is given as 41.6. For the same compound, in data set [1] (insulin 6 U/day), the “benefit index: time in range” value is 78.9; the “hazard index: time above 180 mg/dL” value came out at 2.8; the “hypo avoidance index” value came to 5.7. In addition, the “blood glucose values within range 70-180 mg/dL (TIR)” value in data set [1] (post-STZ rats, 2 U/day Levemir, no A2) came to 64.9%. Moreover, in data set [1] (rat, in vivo), the “blood glucose values <70 mg/dL” value was 5.8% and the “proportion of time spent below 70 mg/dL” value is “markedly increase”. In addition, in data set [2] (in vivo), the Duration entry is on record as “Up to 24 hours”, the Onset was 60 to 120 min and the Peak is 6 to 8 h.
On to “velosulin: human insulin for use in an insulin pump, short-acting”, for which, in data set [2] (in vivo), the Duration is 2 to 3 h and the Peak was 1 to 2 h.
In the case of insulin glargine, in data set [2] (in vivo), the Duration is 20 to 24 h. The Peak entry in data set [2] (result in words) is recorded as “No peak time”.
Regarding “human amylin: 37-residue polypeptide hormone co-secreted with insulin from pancreatic β-cells (SEQ ID NO: 5) (KCNTATCATQRLANFLVHSSNNFGAILSSTNVGSNTY; disulfide 2-7; listed as Homo sapiens)”, the half-life entry in data set [3] (in humans) is “about 13 minutes”. The half-life in serum result in data set [3] (serum) is listed as “about 13 minutes”.
Take Davalintide: in data set [4], the half-life result is recorded as “about 26 minutes”.
Take aspart [Fiasp ® (aspart)]: in data set [2] (in vivo), the Duration was 3 to 5 h and the Peak is 1 to 3 h. The “Onset, sooner than Rapid Acting Insulins” value in data set [2] (relative to rapid-acting insulins) is “about 5 mins”.
Consider `CC[C@H](C)[C@H](NC(=O)[C@@H]1CCCN1C(=O)CNC(=O)[C@H](Cc1ccccc1)NC(=O)[C@H](CC(N)=O)NC(=O)[C@H](CC(N)=O)NC(=O)[C@H](CO)NC(=O)[C@H](CO)NC(=O)[C@H](CCCCN)NC(=O)[C@H](Cc1c[nH]cn1)NC(=O)[C@H](CC(C)C)NC(=O)[C@H](CCC(=O)O)NC(=O)[C@H](CC(N)=O)NC(=O)[C@H](C)NC(=O)[C@H](CC(C)C)NC(=O)[C@H](CCCNC(=N)N)NC(=O)[C@H](CCC(N)=O)NC(=O)[C@@H](NC(=O)[C@H](C)NC(=O)[C@@H]1CSSC[C@H](NC(=O)[C@@H](N)CCCCNC(=O)CC[C@H](NC(=O)CC[C@H](NC(=O)CCCCCCCCCCCCCCCCCCC(=O)O)C(=O)O)C(=O)O)C(=O)N[C@@H](CC(N)=O)C(=O)N[C@@H]([C@@H](C)O)C(=O)N[C@@H](CO)C(=O)N[C@@H]([C@@H](C)O)C(=O)N1)[C@@H](C)O)C(=O)N[C@@H](CC(C)C)C(=O)N1CCC[C@H]1C(=O)N1CCC[C@H]1C(=O)N[C@H](C(=O)N[C@@H](CCCCN)C(=O)N[C@H](C(=O)NCC(=O)N[C@@H](CO)C(=O)N[C@@H](CCC(=O)O)C(=O)N[C@H](C(=O)N[C@@H](Cc1ccc(O)cc1)C(N)=O)[C@@H](C)O)C(C)C)[C@@H](C)O` [Compound A2] (H-K([γGlu-γGlu-C20 diacid])CNTSTCATQRLANELHKSSNNFGPILPPTKVGSETY-NH2; disulfide 2-7), for which, in data set [5], the half-life is 32 to 37 h.
Take “glulisine [Sanofi's Apidra ® (glulisine)]”: in data set [2] (in vivo), the Onset is 20 to 30 min and the Peak is 0.5 to 1.5 h.
As to “insulin degludec [Novo's Tresiba ® (insulin degludec)]”, in data set [2] (in vivo), the Duration is 42 h and the Onset is 30 to 90 min. The Peak entry in data set [2] (result in words) is “No peak time”.
Consider aspart [Novo's Novolog ® (aspart)], for which, in data set [2] (in vivo), the Duration was 3 to 5 h, the Onset is 10 to 20 min and the Peak is 0.667 to 0.833 h.
Regarding “recombinant insulin [Novo's Novolin ® (recombinant insulin)]”, in data set [2] (in vivo), the Duration was 5 to 8 h and the Peak is 2 to 5 h.
lispro [Lilly's Humalog ® (lispro)]: in data set [2] (in vivo), the Duration was 3 to 5 h, the Onset was 15 to 30 min and the Peak is 0.5 to 1.5 h.

As a reminder, the half-life is how long it takes for the measured level to halve.
